Source: patent publication US20180216060A1, “METHODS AND MEANS FOR THE MODIFICATION OF CELL SURFACES” (ACADEMISCH ZIEKENHUIS LEIDEN (ALSO ACTING UNDER THE NAME OF …, priority 2015, published 2018)
Where a SMILES comes first, the peptide text is derived from it. Bridges are numbered along the chain shown (N, C = ends). [ ]: non-standard residue; d: D form. The star is where a group is joined. Adamantane1carbonyl = O=C(C12CC3CC(CC(C3)C1)C2)*; 2Nal = N[C@@H](Cc1ccc2ccccc2c1)C(=O)O; Cit = NC(=O)NCCC[C@H](N)C(=O)O

Assays:
[1] = Sensing: binding of functionalized cells to a glass slide coated with β-cyclodextrin; conditions: 1 h ligand incubation, 15 min on slide
Experimental: A glass slide was coated with β-cyclodextrin in a line of 400 micrometer wide. CXCR4 expressing cells (see previous examples) were incubated for 1 h with the ligand-guest compound Ac-TZ14011-Ad as discussed above and then added to the glass slide and incubated for 15 min. […] The conclusion of this experiment is that cells can be selectively found (and bound) within a solution by using the guest-host chemistry of the present invention. This enables one to purify (and at least to sense) particular types of cells within a solution and/or mixture of cells.

[2] = molecular target: T1, CXCR4 receptor (Homo sapiens, UniProt P61073); assay: Flow cytometry competition with Ac-TZ14011-MSAP to determine receptor affinity (KD); format: binding; conditions: competition with Ac-TZ14011-MSAP (250 nM), MDA-GFP-CXCR4+ cells
T1 construct: expressed in transfected cells; host or cells: MDA-MB-231 human breast cancer cells (MDA-GFP-CXCR4+), gift of Dr. Gary Luker
Description: The necessity of a multivalent approach was studied by direct comparison between an entity comprising polymeric host functional groups (multivalent) and a monovalent host functional group. A genetically modified MDA-MB-231 human breast cancer cell line that has the Green Fluorescent Protein (GFP) directly coupled to the overexpressed CXCR4 receptor was used to study the interactions with CXCR4 positive cells. The CXCR4 chemokine receptor is over-expressed in the membrane of many human cancer cells, but CXCR4 also play a major role in the chemotaxis of stem cells. The cyclic peptide Ac-TZ14011 is often used to target this receptor and was also chosen here as the ligand. […] The binding strength between the receptor and the peptide was determined by competition with a previously reported modified Ac-TZ14011 derivative. […] The cells were then washed two times with 1% BSA in PBS, resuspended in 1% BSA in PBS and fluorescence of the reference compound was measured by using a BD FacsCanto™ II flow cytometer with APC-Cy7 settings. Live cells were gated on forward scatter and side scatter and 10000 viable cells were analyzed. […] The KD values were calculated by using the “Binding-Competitive, One site-Fit Ki” nonlinear regression equation of GraphPad Prism. […]
MDA-GFP-CXCR4+ cells were trypsinized (using 0.5% trypsin/EDTA, BD Biosciences) and counted. […]

T1 sequence (P61073 whole entry): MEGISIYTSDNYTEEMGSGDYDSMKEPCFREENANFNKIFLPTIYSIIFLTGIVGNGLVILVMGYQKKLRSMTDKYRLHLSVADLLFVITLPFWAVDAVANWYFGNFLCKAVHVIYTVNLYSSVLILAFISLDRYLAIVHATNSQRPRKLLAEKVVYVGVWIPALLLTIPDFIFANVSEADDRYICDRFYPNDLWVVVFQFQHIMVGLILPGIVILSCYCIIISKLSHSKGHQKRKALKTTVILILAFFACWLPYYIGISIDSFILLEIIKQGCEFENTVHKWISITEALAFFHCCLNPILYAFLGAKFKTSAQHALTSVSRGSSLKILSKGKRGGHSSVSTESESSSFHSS

In the case of CC(=O)N[C@@H](CCCNC(=N)N)C(=O)N[C@@H](CCCNC(=N)N)C(=O)N[C@@H](Cc1ccc2ccccc2c1)C(=O)N[C@H]1CSSC[C@@H](C(=O)N[C@@H](CCCNC(=N)N)C(N)=O)NC(=O)[C@H](CCCNC(N)=O)NC(=O)[C@H](CCCNC(=N)N)NC(=O)[C@H](Cc2ccc(O)cc2)NC(=O)[C@@H]2CCCN2C(=O)[C@@H](CCCCNC(=O)C23CC4CC(CC(C4)C2)C3)NC(=O)[C@H](CCCNC(=N)N)NC(=O)[C@H](CCCNC(N)=O)NC(=O)[C@H](Cc2ccc(O)cc2)NC1=O [Ac-TZ14011-Ad] (Ac-RR[2Nal]CY[Cit]R[dK](Adamantane1carbonyl)PYR[Cit]CR-NH2; disulfide 4-13), the “attachment of functionalized cells to the cyclodextrin coated area” value [1] is reported as “preferentially attach” and the Kd [2] is reported as 56 nM.
